Common to all, as to assay: Kinase inhibitory activity (33P-ATP, filtration-binding method, Reaction Biology Corp.)
Holding throughout (type): biochemical

One assay concerns the target T1, TrkA-G667C (Homo sapiens, UniProt P04629, G667C).
T1 construct: purchased Reaction Biology Corp
The note with it: read-out: Half maximal inhibitory concentration IC50 for kinases, TrkA-G667C. The method, then:
(§1) The mixture was incubated at room temperature for 20 minutes, added with ^33P-ATP at a certain concentration to start the reaction, and then incubated at room temperature for 120 minutes. Finally, the radioactivity of the reactant was detected by the filtration-binding method. The final kinase activity was expressed as the ratio of the remaining kinase activity in the test sample to the kinase activity of the DMSO control. The dose-response curves were fitted and IC50 values were calculated by GraphPad software.

The target of another assay is T2, ALK (Homo sapiens, UniProt Q9UM73).
T2 construct: purchased Reaction Biology Corp
T2 sequence (Q9UM73 19-1620): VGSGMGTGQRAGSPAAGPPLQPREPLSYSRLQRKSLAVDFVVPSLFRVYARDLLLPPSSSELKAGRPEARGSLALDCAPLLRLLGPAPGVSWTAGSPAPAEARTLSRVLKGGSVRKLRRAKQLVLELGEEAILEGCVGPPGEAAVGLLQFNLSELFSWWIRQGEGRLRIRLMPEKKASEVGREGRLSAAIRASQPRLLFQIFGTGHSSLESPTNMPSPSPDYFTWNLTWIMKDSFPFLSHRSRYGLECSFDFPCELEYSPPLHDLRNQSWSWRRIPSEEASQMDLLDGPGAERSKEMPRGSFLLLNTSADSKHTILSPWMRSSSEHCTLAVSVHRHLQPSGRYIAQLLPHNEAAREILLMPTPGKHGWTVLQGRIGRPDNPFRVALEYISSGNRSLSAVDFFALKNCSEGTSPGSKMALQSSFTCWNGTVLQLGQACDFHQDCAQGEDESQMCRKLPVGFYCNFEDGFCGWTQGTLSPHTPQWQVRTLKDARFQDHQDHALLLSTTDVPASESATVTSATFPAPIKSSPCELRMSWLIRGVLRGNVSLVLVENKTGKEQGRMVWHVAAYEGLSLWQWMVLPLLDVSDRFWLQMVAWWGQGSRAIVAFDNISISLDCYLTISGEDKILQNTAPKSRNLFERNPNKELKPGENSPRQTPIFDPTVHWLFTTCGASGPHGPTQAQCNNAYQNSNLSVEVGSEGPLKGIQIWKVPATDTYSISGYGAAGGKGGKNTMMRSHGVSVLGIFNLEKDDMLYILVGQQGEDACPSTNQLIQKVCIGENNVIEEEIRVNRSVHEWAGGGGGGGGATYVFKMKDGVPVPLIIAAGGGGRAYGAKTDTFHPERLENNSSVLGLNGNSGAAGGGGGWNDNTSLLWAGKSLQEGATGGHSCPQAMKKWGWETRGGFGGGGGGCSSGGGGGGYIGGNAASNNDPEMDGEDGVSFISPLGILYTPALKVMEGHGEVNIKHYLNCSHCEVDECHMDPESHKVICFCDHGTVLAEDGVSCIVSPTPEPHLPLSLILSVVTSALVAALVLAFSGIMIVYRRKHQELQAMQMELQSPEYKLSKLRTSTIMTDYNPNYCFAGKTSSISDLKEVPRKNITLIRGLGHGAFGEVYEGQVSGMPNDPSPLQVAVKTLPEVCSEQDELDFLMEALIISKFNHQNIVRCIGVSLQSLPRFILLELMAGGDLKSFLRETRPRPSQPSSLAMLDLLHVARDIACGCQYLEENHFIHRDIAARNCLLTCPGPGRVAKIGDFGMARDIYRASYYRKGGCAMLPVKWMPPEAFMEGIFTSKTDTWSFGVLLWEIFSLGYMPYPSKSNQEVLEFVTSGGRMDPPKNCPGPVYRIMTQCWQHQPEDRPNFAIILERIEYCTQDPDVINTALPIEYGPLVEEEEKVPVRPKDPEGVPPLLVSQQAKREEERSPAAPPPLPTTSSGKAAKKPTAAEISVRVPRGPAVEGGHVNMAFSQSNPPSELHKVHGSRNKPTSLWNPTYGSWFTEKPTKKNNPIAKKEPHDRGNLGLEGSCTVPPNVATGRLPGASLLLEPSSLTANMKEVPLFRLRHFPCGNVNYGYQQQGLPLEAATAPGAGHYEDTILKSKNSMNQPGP
The note with it: read-out: Half maximal inhibitory concentration IC50 for kinases, ALK. The method, then: as §1

In the next assay the target is T3, Ros1 (Homo sapiens, UniProt P08922).
T3 construct: purchased Reaction Biology Corp
T3 sequence (P08922 28-2347): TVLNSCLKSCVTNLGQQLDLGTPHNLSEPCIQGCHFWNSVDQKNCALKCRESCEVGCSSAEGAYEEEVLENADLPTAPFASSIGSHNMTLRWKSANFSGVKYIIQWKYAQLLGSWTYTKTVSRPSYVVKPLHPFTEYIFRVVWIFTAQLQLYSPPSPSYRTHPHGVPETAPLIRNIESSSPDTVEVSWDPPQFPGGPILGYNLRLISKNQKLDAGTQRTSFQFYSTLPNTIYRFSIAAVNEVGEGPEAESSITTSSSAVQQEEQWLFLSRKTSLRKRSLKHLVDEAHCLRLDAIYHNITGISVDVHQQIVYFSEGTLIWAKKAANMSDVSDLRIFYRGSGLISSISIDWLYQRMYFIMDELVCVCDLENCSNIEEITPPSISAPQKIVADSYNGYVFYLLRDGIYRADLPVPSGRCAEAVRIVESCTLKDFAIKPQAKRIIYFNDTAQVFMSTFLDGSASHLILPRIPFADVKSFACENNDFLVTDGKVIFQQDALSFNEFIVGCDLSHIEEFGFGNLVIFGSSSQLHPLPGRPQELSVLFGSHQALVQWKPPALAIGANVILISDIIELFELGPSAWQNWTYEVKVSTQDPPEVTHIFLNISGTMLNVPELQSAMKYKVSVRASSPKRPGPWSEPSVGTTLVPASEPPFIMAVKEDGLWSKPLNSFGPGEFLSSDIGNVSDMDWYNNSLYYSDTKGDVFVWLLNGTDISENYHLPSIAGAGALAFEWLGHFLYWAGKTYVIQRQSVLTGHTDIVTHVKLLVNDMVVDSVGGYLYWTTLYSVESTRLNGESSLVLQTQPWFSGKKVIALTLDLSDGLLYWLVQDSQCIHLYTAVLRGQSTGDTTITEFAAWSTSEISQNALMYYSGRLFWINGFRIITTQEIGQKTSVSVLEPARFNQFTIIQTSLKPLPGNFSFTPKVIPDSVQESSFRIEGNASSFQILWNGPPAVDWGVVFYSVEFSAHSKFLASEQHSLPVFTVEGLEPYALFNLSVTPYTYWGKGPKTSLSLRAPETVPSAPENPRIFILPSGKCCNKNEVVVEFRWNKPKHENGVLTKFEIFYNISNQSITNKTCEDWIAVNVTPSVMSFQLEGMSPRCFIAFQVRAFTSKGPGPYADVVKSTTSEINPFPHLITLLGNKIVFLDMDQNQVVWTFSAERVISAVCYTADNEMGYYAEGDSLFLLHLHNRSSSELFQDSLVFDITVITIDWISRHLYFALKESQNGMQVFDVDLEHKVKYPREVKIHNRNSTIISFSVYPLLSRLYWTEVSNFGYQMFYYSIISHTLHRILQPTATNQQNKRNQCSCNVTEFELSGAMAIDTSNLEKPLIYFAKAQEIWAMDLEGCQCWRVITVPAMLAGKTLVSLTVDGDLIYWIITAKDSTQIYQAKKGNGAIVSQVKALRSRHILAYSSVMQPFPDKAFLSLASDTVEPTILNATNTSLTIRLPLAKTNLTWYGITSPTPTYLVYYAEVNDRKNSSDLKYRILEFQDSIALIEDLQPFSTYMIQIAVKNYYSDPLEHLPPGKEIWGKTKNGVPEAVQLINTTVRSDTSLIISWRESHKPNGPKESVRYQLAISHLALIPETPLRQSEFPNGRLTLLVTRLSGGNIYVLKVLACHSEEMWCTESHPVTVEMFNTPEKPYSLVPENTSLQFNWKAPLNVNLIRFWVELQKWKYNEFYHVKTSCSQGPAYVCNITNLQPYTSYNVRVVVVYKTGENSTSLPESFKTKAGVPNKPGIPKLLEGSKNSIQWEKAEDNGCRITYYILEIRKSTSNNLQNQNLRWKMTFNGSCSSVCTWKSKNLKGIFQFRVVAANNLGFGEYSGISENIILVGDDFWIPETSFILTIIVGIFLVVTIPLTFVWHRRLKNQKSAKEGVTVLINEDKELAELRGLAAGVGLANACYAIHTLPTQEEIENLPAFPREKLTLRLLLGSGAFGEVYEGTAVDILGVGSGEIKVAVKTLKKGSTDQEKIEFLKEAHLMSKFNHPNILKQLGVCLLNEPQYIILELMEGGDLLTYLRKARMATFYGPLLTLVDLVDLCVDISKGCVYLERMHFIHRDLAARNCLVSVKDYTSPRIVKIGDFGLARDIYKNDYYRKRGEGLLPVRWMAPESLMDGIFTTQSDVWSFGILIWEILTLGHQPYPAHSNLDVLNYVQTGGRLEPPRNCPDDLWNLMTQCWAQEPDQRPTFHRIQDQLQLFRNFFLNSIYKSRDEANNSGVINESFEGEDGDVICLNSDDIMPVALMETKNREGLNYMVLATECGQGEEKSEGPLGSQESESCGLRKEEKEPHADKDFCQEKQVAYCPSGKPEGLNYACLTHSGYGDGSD
The note with it: read-out: Half maximal inhibitory concentration IC50 for kinases, Ros1. Here is the method: as §1

Another assay deals with T4, TrkA-G595R (Homo sapiens, UniProt P04629, G595R).
T4 construct: purchased Reaction Biology Corp
T4 sequence (P04629 33-796 G595R): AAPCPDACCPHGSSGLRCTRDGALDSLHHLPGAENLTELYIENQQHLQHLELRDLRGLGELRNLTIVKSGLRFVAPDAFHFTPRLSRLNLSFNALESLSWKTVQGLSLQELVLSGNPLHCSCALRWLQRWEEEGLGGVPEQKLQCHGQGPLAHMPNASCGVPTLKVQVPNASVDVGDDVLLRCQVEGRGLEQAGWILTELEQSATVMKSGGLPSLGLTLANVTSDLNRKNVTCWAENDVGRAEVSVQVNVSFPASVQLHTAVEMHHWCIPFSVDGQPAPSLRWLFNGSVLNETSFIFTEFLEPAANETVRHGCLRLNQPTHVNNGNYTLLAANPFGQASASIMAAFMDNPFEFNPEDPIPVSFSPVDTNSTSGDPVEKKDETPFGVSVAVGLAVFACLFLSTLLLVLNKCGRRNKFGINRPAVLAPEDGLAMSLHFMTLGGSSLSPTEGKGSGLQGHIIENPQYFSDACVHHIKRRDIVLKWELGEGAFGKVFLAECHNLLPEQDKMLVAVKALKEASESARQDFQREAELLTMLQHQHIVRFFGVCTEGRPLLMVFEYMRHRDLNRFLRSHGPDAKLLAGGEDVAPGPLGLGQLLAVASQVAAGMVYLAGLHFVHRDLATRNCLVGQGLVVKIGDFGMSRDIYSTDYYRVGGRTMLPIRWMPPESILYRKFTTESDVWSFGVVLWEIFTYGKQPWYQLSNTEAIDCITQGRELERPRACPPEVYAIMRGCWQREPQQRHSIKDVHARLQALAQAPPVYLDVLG
The note with it: read-out: Half maximal inhibitory concentration IC50 for kinases, TrkA-G595R. The method, then: as §1

The next assay has as its target T5, TrkA (Homo sapiens, UniProt P04629).
T5 construct: purchased Reaction Biology Corp
The note with it: read-out: Half maximal inhibitory concentration IC50 for kinases, TrkA. Here is the method:
as §1

Another assay addresses T6, TrkC (Homo sapiens, UniProt Q16288).
T6 construct: purchased Reaction Biology Corp
The note with it: read-out: Half maximal inhibitory concentration IC50 for kinases, TrkC. Here is the method: as §1

T5 sequence (P04629 33-796): as the sequence (P04629 33-796 G595R) above, with R563G counted along it
T1 sequence (P04629 33-796 G667C): as the sequence (P04629 33-796 G595R) above, with R563G, G635C counted along it

Turning to `O=C1N[C@@H]2COC[C@@H]2Oc2ncc(F)cc2[C@H]2COCCN2c2ccn3ncc1c3n2` [WX005A], the IC50 was 0.5 nM on TrkA-G667C; 103 nM at ALK; 3.1 nM at Ros1; 0.3 nM on TrkA-G595R; 4.7 nM at TrkA; 0.1 nM at TrkC.
`O=C1N[C@@H]2COC[C@@H]2Oc2ncc(F)cc2[C@@H]2COCCN2c2ccn3ncc1c3n2` [WX005B]: at TrkA, the IC50 is over 1000 nM.
On the same count and under the same terms, next, `O=C1NC2(CC2)COc2ncc(F)cc2[C@@H]2CCOCCN2c2ccn3ncc1c3n2` [WX009B]: over 1000 nM.

The record behind these values is patent US20210403485A1, “PYRAZOLOPYRIMIDINE DERIVATIVE AS SELECTIVE TRK INHIBITOR” (SHANDONG LUYE PHARMACEUTICAL CO., LTD., priority 2018, published 2021).
